# Reference: US20230285490A1, “ADDITIVE TO FISH FOOD COMPRISING TWO PLANT EXTRACTS AND A SEAWEED (PALMARIA PALMATA) EXTRACT AS TASTE MASKING AGENT; AND A METHOD TO COMBAT/ELIMINATE INFESTATIONS OF CALIGUS BY STERILIZATION OF FEMALE INDIVIDUALS IN FISH FARMING CENTERS AND MARINE CONCESSIONS” (priority 2020, published 2023)
# Test system: ovigerous Caligus females
# Experiment: In vitro plate bioassay on swimming behavior and survival of ovigerous Caligus females, comparison with emamectin benzoate (Example 7)
# Conditions: 2 hours, 14° C., sea water
# From the text: However, 75% living females slowly swam, having a slow response to stimulus and adhered to experimentation vessels. • Between 87 and 100% parasites survived in control with solvents (methanol and DMSO) used to prepare each product and in sea water. Under these conditions females actively swam and readily responded to stimulus as bubbles of the aeration system or manipulation with tweezers.
substance,measurement,setting,value
emamectin benzoate,Affected and dead Total (%),15 ovigerous females,27%
same,Affected ovigerous females,15 ovigerous females,1
same,Vivas (living ovigerous females),15 ovigerous females,11
same,dead ovigerous females,15 ovigerous females,3
same,Affected and dead Total (%),"15 ovigerous females, listed as emamectin benzoate",25%
same,remaining living females with slow/erratic swimming,,75%
